Active and inactive are the calls of the source. No rule for the calls is given here.
Test system: CCRIS mutagenicity, Ames/micronucleus/aberration tests
Experiment: CCRIS mutagenicity studies
Conditions: Test System: AMES SALMONELLA TYPHIMURIUM
[1] = Strain/Indicator: TA98, Metabolic Activation: NONE, Method: STANDARD PLATE
[2] = Strain/Indicator: TA100, Metabolic Activation: NONE, Method: STANDARD PLATE
[3] = Strain/Indicator: TA1535, Metabolic Activation: NONE, Method: STANDARD PLATE
[4] = Strain/Indicator: TA1537, Metabolic Activation: NONE, Method: STANDARD PLATE

CNC(=O)c1c(N(C)N=O)ncn1C
mutagenic call [1]: inactive; negative
mutagenic call (Strain/Indicator: TA98, Metabolic Activation: S-9, Method: PREINCUBATION): inactive; negative
mutagenic call (Strain/Indicator: TA98, Metabolic Activation: S-9, Method: STANDARD PLATE): inactive; negative
mutagenic call [2]: inactive; negative
mutagenic call (Strain/Indicator: TA100, Metabolic Activation: S-9, Method: PREINCUBATION): inactive; negative
mutagenic call (Strain/Indicator: TA100, Metabolic Activation: S-9, Method: STANDARD PLATE): inactive; negative
mutagenic call (Strain/Indicator: TA102, Metabolic Activation: NONE, Method: STANDARD PLATE): inactive; negative
mutagenic call (Strain/Indicator: TA102, Metabolic Activation: S-9, Method: PREINCUBATION): inactive; negative
mutagenic call (Strain/Indicator: TA102, Metabolic Activation: S-9, Method: STANDARD PLATE): inactive; negative
mutagenic call [3]: inactive; negative
mutagenic call (Strain/Indicator: TA1535, Metabolic Activation: S-9, Method: PREINCUBATION): inactive; negative
mutagenic call (Strain/Indicator: TA1535, Metabolic Activation: S-9, Method: STANDARD PLATE): inactive; negative
mutagenic call [4]: inactive; negative
mutagenic call (Strain/Indicator: TA1537, Metabolic Activation: S-9, Method: PREINCUBATION): inactive; negative
mutagenic call (Strain/Indicator: TA1537, Metabolic Activation: S-9, Method: STANDARD PLATE): inactive; negative

O=[N+]([O-])c1ccc2oc3ccc([N+](=O)[O-])cc3c2c1
mutagenic call (Strain/Indicator: TA98(1,8-DNP6), Metabolic Activation: NONE, Method: PREINCUBATION): active; positive
mutagenic call (Strain/Indicator: TA98(1,8-DNP6), Metabolic Activation: NONE, Method: SUSPENSION): active; positive
mutagenic call (Strain/Indicator: TA98(1,8-DNP6), Metabolic Activation: RAT, LIVER, S-9, PCB (5%), Method: PREINCUBATION): active; positive
mutagenic call (Strain/Indicator: TA98(NR), Metabolic Activation: NONE, Method: PREINCUBATION): inactive; negative
mutagenic call (Strain/Indicator: TA98(NR), Metabolic Activation: NONE, Method: SUSPENSION): inactive; negative
mutagenic call (Strain/Indicator: TA98(NR), Metabolic Activation: RAT, LIVER, S-9 (10%), Method: PREINCUBATION): active; positive
mutagenic call (Strain/Indicator: TA98(NR), Metabolic Activation: RAT, LIVER, S-9, 3-METHYLCHOLANTHRENE (10%), Method: PREINCUBATION): active; positive
mutagenic call (Strain/Indicator: TA98(NR), Metabolic Activation: RAT, LIVER, S-9, BETA-NAPHTHOFLAVONE (10%), Method: PREINCUBATION): active; positive
mutagenic call (Strain/Indicator: TA98(NR), Metabolic Activation: RAT, LIVER, S-9, PCB (5 OR 10%), Method: PREINCUBATION): active; positive
mutagenic call (Strain/Indicator: TA98(NR), Metabolic Activation: RAT, LIVER, S-9, PHENOBARBITAL (10%), Method: PREINCUBATION): active; positive
mutagenic call (Strain/Indicator: TA98, Metabolic Activation: NONE, Method: PREINCUBATION): active; positive
mutagenic call (Strain/Indicator: TA98, Metabolic Activation: NONE, Method: SUSPENSION): active; positive
mutagenic call (Strain/Indicator: TA98, Metabolic Activation: RAT, LIVER, S-9, PCB (5%), Method: PREINCUBATION): active; positive
mutagenic call (Strain/Indicator: TA98, Metabolic Activation: RAT, LIVER, S-9, PCB, Method: SUSPENSION): active; positive
mutagenic call (Strain/Indicator: TA100, Metabolic Activation: NONE, Method: PREINCUBATION): inactive; negative
mutagenic call (Strain/Indicator: TA100, Metabolic Activation: NONE, Method: SUSPENSION): inactive; negative
mutagenic call (Strain/Indicator: TA100, Metabolic Activation: RAT, LIVER, S-9, PCB (5%), Method: PREINCUBATION): inactive; negative
mutagenic call (Strain/Indicator: TA100, Metabolic Activation: RAT, LIVER, S-9, PCB, Method: SUSPENSION): inactive; negative

CC(=O)Oc1ccccc1C(=O)Oc1ccccc1C(=O)O
mutagenic call (Strain/Indicator: TA97, Metabolic Activation: NONE, Method: STANDARD PLATE): inactive; negative
mutagenic call (Strain/Indicator: TA97, Metabolic Activation: RAT, LIVER, S-9, AROCLOR 1254, Method: STANDARD PLATE): inactive; negative
mutagenic call [1]: inactive; negative
mutagenic call (Strain/Indicator: TA98, Metabolic Activation: RAT, LIVER, S-9, AROCLOR 1254, Method: STANDARD PLATE): inactive; negative
mutagenic call [2]: inactive; negative
mutagenic call (Strain/Indicator: TA100, Metabolic Activation: RAT, LIVER, S-9, AROCLOR 1254, Method: STANDARD PLATE): inactive; negative
mutagenic call [3]: inactive; negative
mutagenic call (Strain/Indicator: TA1535, Metabolic Activation: RAT, LIVER, S-9, AROCLOR 1254, Method: STANDARD PLATE): inactive; negative
mutagenic call [4]: inactive; negative
mutagenic call (Strain/Indicator: TA1537, Metabolic Activation: RAT, LIVER, S-9, AROCLOR 1254, Method: STANDARD PLATE): inactive; negative
mutagenic call (Strain/Indicator: TA1538, Metabolic Activation: NONE, Method: STANDARD PLATE): inactive; negative
mutagenic call (Strain/Indicator: TA1538, Metabolic Activation: RAT, LIVER, S-9, AROCLOR 1254, Method: STANDARD PLATE): inactive; negative

O=C1C(Cl)=C(Cl)C(=O)C1(Cl)Cl
mutagenic call [2]: inactive; negative

— PubChem BioAssay AID1259407 (Chemical Carcinogenesis Research Information System (CCRIS), 2018)
